In patent US11530190B2, “Compounds for treating mitochondrial disease” (Khondrion IP B.V., priority 2015, dated 2022):

Key:
[1] = test system: primary human fibroblasts derived from a Complex-I deficient patient; test: Protection against oxidative stress-induced (BSO) cell death, Calcein-AM viability; format: cell-based
Excerpt: (§1) Methods: To assess the ability of the compounds to protect patient cells against oxidative stress-induced cell death an assay was established using stressed primary human fibroblasts derived from a Complex-I deficient patient. Utilizing the inherent oxidative stress of fibroblasts from patients with mitochondrial disease, their oxidative burden was further increased by depleting cellular glutathione with an inhibitor of glutathione synthesis, L-buthionine-(S,R)-sulfoximine (BSO).
Cells were seeded at a density of 3000 cells/well in a 96-well format plate and incubated with increasing concentrations of compounds in combination with BSO (200 μM, Sigma-Aldrich). Two days after treatment, the cells were washed twice and stained with a solution of 5 μM Calcein-AM (Life technologies C3100MP) during 25 min in 199 medium without phenol red (Life technologies, 11043-023) at 37° C., 5% CO2. After 2 washes with PBS the plate was read on a fluorescence plate reader (Fluostar Omega, BMG labtech) and the percentage of cell viability was determined as a function of fluorescence intensity (FIG. 2).

[2] = test system: fibroblasts from healthy individuals; test: Effect of BSO on viability of fibroblasts from healthy individuals, Calcein-AM; format: cell-based, human; details: BSO 200 μM, 48 h; FIG. 1
Protocol: FIG. 1. Effect of L-buthionine-(S,R)-sulfoximine (BSO), an inhibitor of glutathione synthesis, on the viability of primary human fibroblasts derived from healthy individuals or derived from Complex-I deficient patients. Two days after treatment of 48 h with 200 μM BSO, cells were washed and stained with Calcein-AM. Cell viability was determined as a function of fluorescence intensity.
as §1

[3] = test system: Primary human fibroblasts obtained from a patient with mitochondrial disease; test: Intracellular superoxide production, hydroethidine (HEt) fluorescence microscopy; format: cell-based; details: approximately 24 hours with increasing concentrations, HEt 10 μM; FIG. 4A-E
Protocol: Methods: HEt (Hydroethidine) is a non-fluorescent compound, which can enter the cells freely. There it is oxidized by superoxide to its fluorescent products E^+ and 2OHE^+, which accumulate in negatively charged cellular compartments (i.e. nucleus and mitochondria). E^++2OHE^+ fluorescence is thus considered a measure of superoxide production within the cell.
The effect of the compounds on the intracellular superoxide levels was measured. Primary human fibroblasts obtained from a patient with mitochondrial disease were seeded at a density of 3000 cells/well in a 96-well format. The following day, the culture medium was replaced with 100 μl medium containing the compounds at different concentrations. After approximately 24 hours the cells were incubated with 100 μL medium without FBS and phenol red and containing HEt at a final concentration 10 μM (Life Technologies). The cell culture plate containing HEt was placed for 10 minutes at 37° C., 5% CO2. Next, the cells were washed twice with medium, placed in culture medium without FBS and phenol red and visualized by fluorescence microscopy (BD Pathway 855, BDBiosciences). From the obtained images superoxide levels were analysed using Image Pro plus (Media Cybernetics) software.

[4] = test system: Primary human fibroblasts derived from a patient with mitochondrial disease; test: Cellular ROS levels after H2O2 induction, CM-H2DCFDA fluorescence; format: cell-based; details: compound 10 μM, H2O2 100 μM; FIG. 3
Excerpt: Methods: CM-H2DCFDA is a cell-permeable reporter molecule for reactive oxygen species (ROS) that is converted into non-fluorescent and membrane-impermeable CM-H2DCF following removal of its acetate groups by intracellular esterases. Upon oxidation by ROS, CM-H2DCF is converted into fluorescent CM-DCF. It is widely accepted that a wide variety of ROS can be responsible for the CM-H2DCF oxidation, making it a suitable reporter of cellular oxidant levels. The average cellular CM-DCF fluorescence intensity is considered an indirect measure of cellular ROS levels.
The effect of the compounds on the intracellular ROS levels was measured in response to an induction of ROS by hydrogen peroxide. Primary human fibroblasts derived from a patient with mitochondrial disease were seeded at a density of 2500 cells/well in a 96-well format plate. […] Wells without cells were used to correct for the background fluorescence. The plate was read on a fluorescence plate reader (Fluostar Omega, BMG labtech) in a kinetic mode with a 2 min interval cycle. After 4 cycles, H2O2 (final concentration 100 μM) was added using onboard injectors and the fluorescence measurement was resumed for 1 hour. After background correction the fluorescence intensities were plotted as a function of time.

[5] = test system: cultured healthy human skin fibroblasts; details: cited from earlier work

Row | SMILES | superoxide scavenging / superoxide levels (HEt fluorescence) [3] | H2O2-mediated induction of cellular ROS levels (CM-DCF fluorescence) [4] | further results
1 | CCCCS(=N)(=O)CCC(N)C(=O)O [BSO, L-buthionine-(S,R)-sulfoximine] | – | – | viability of patient fibroblasts after BSO insult ([1]; BSO 200 μM alone, within 48 h, FIG. 1): complete cell death; viability of fibroblasts from healthy individuals after BSO insult [2]: retained full viability
2 | CC(C)=CCC/C(C)=C/CC/C(C)=C/CC[C@@](C)(O)CCC1=C(C)C(=O)C(C)=C(C)C1=O [EPI743] | only a limited ability to scavenge superoxide | slightly diminished | EC50 ([1]; 200 μM BSO, two days, Calcein-AM cell viability, formate salt, read-out: EC50 in protecting the cells against oxidative stress-induced cell death): 0.0353 µM
3 | Cc1c(C)c2c(c(C)c1O)CCC(C)(C(=O)O)O2 (centres unmarked) [Trolox, 6-hydroxy-2,5,7,8-tetramethylchroman-2-carboxylic acid] | – | – | levels of ROS [5]: reduces the levels of ROS
4 | COC1=C(OC)C(=O)C(CCCCCCCCCCO)=C(C)C1=O [Idebenone] | only a limited ability to scavenge superoxide | slightly diminished | –
